Experimental findings from US10100001B2, “Adenylyl cyclase inhibitors for neuropathic and inflammatory pain” (Purdue Research Foundation, priority 2015, dated 2018) are described below.

This assay concerns the target T1, AC1 (Homo sapiens, UniProt Q08828).
T1 construct: expressed in transfected cells
Nature of the assay: Inhibition of A23187-mediated (Ca2+-stimulated) cAMP accumulation in HEK cells stably expressing AC1. The assay is classed as cell-based. The following applies: for inhibition at 4 µM / inhibition at 40 µM: HEK293, read-out: AC1 Inhibition Percentage; for inhibition at 4 µM: 4 μM compound; for inhibition at 40 µM: 40 μM compound; for IC50: HEK cells stably expressing AC1, inhibitors 30 min, then 3 μM A23187 with IBMX, average and S.E.M. of at least three independent experiments, read-out: IC50 for inhibition of the A23187-mediated cAMP response of AC1. As to the method:
HEK cells stably expressing AC1 were treated with inhibitors for 30 min, and subsequently incubated with 3 μM A23187 in the presence of 2 mM IBMX. Data represent the average and S.E.M. of at least three independent experiments.
A23187 is a Ca2+ ionophore, which promotes Ca2+ binding to calmodulin in the cells and, subsequent stimulation of AC1.
HEK (human embryonic kidney) cells stably expressing human AC1, were cultured in Dubelcco's Modified Eagle Medium (Life Technologies, Grand Island, N.Y.) supplemented with 5% bovine calf serum (Hyclone, Logan, Utah), 5% fetal clone I (Hyclone, Logan, Utah), Antibiotic-Antimycotic (Life Technologies, Grand Island, N.Y.), and G418 (Invivogen, San Diego, Calif.). The cells were grown to confluency in 15 cm disses, harvested using Cell Dissociation Buffer (Life Technologies, Grand Island, N.Y.), and resuspended in 4 ml of fetal bovine serum (Hyclone, Logan, Utah) containing 10% dimethyl sulfoxide (Sigma-Aldrich, St. Louis, Mo.). 1 ml of cell suspension was added to cryovials that were incubated overnight at −80° C. in a CoolCell device (BioCision, Larkspur, Calif.) for cryopreservation. On the following day, cryovials were stored in liquid N2 until the assay day.
Cryopreserved HEK-AC1 cells were thawed in a 37° C. water-bath, resuspended in 10 ml optiMEM (Life Technologies, Grand Island, N.Y.) and centrifuged at 500×g for 5 min. The cells were resuspended in 10 ml optiMEM and the centrifugation step was repeated. Cells were then resuspended in 1 ml optiMEM and counted using a Countess automated cell counter (Life Technologies, Grand Island, N.Y.). Cells were added to a white, flat bottom, low-volume, tissue culture-treated 384 well plate (PerkinElmer, Shelton, Conn.) at a final density of 2500 cells/well. The plate was centrifuged for 1 min at 100×g and incubated in a 37° C. humidified incubator for 1 h. […] Following this incubation A23187 (Sigma-Aldrich, St. Louis, Mo.) (3 μM final concentration) containing 3-isobutyl-1-methylxanthine (Sigma-Aldrich, St. Louis, Mo.) (0.5 mM final concentration) was added. The plate was centrifuged for 1 min at 100×g and incubated at room temperature for 1 h. Cyclic AMP accumulation was measured using Cisbio's dynamic 2 kit (Cisbio Bioassays, Bedford, Mass.) according to the manufacturer's instructions. Plates were analyzed for fluorescent emissions at 620 nm and 665 nm using 330 nm as the excitation wavelength in a Cytation 3 Cell Imaging Multi-Mode Reader (Biotek, Winooski, Vt.), and ratiometric analysis was carried out by dividing the 665 nm emissions by the 620 nm emissions to extrapolate the cAMP concentrations from a cAMP standard curve. The data represent the average of at least three independent experiments ran in duplicate.

SMILES strings stand for the structures.

T1 sequence (Q08828 whole entry): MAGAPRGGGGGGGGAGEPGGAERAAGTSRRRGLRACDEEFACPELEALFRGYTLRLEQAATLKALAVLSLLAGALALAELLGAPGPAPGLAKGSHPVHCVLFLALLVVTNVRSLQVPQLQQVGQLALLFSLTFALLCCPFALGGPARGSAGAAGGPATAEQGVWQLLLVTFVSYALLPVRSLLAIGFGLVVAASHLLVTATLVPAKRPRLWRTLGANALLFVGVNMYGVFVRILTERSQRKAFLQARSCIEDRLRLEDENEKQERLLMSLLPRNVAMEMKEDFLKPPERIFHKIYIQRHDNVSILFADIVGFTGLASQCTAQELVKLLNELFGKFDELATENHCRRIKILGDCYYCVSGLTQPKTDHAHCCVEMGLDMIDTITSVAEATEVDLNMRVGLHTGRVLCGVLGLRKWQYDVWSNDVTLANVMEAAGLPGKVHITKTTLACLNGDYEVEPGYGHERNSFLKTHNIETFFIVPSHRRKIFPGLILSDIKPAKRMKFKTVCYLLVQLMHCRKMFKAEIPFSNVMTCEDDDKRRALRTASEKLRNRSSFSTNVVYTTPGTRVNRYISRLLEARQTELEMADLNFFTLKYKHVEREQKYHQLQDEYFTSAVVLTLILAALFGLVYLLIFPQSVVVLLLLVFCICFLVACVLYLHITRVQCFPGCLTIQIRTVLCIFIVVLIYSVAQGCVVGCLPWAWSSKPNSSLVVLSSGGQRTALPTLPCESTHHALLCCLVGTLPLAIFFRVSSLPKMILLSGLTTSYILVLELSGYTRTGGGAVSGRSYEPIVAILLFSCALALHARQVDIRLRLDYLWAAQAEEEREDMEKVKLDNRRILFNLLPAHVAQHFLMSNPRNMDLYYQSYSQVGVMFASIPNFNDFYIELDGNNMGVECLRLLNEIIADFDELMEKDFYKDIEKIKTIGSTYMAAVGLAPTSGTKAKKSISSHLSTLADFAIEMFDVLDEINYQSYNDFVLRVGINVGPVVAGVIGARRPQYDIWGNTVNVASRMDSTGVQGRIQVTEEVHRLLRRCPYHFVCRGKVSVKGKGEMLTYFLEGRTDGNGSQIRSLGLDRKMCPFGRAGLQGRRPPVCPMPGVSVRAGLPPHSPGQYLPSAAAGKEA

As for `CN(C/C=C/c1ccccc1)Cc1cccc2ccccc12` [Compound 1, (E)-N-methyl-N-(naphthalen-1-ylmethyl)-3-phenylprop-2-en-1-amine, reference compound], the inhibition at 4 µM was determined as 4% and the inhibition at 40 µM was determined as 83%.

For the compound `Fc1ccc(C(c2ccc(F)cc2)N2CCN(C/C=C/c3ccccc3)CC2)cc1` [Compound 3, 1-(bis(4-fluorophenyl)methyl)-4-cinnamylpiperazine, reference compound], the inhibition at 4 µM came out at 35% and the inhibition at 40 µM came out at 97%.

`C(=C\c1ccccc1)/CN(CCc1c[nH]c2ccccc12)Cc1ccccc1` [Compound 7aa, (E)-N-(2-(1H-indol-3-yl)ethyl)-N-benzyl-3-phenylprop-2-en-1-amine]: the inhibition at 4 µM was found to be 41%, the inhibition at 40 µM was 92% and the IC50 was 9.92 µM.

Take `Cc1ccc(/C=C/CN(CCc2c[nH]c3ccccc23)Cc2ccccc2)cc1` [Compound 7ab, (E)-N-(2-(1H-indol-3-yl)ethyl)-N-benzyl-3-p-tolylprop-2-en-1-amine]: the inhibition at 4 µM is 20% and the inhibition at 40 µM came to 91%.

As for `Cc1cccc(/C=C/CN(CCc2c[nH]c3ccccc23)Cc2ccccc2)c1` [Compound 7ac, (E)-N-(2-(1H-indol-3-yl)ethyl)-N-benzyl-3-m-tolylprop-2-en-1-amine], the inhibition at 4 µM was 18% and the inhibition at 40 µM was 93%.

Take `Ic1ccc(/C=C/CN(CCc2c[nH]c3ccccc23)Cc2ccccc2)cc1` [Compound 7ad, (E)-N-(2-(1H-indol-3-yl)ethyl)-N-benzyl-3-(4-iodophenyl)prop-2-en-1-amine]: the inhibition at 4 µM amounted to 59%, the inhibition at 40 µM stood at 93% and the IC50 is 10.2 µM.

`Fc1ccc(/C=C/CN(CCc2c[nH]c3ccccc23)Cc2ccccc2)cc1` [Compound 7ae, (E)-N-(2-(1H-indol-3-yl)ethyl)-N-benzyl-3-(4-fluorophenyl)prop-2-en-1-amine]: the inhibition at 4 µM turned out to be 47%, the inhibition at 40 µM worked out at 91% and the IC50 stood at 12.9 µM.

For the compound `Clc1ccc(/C=C/CN(CCc2c[nH]c3ccccc23)Cc2ccccc2)cc1` [Compound 7af, (E)-N-(2-(1H-indol-3-yl)ethyl)-N-benzyl-3-(4-chlorophenyl)prop-2-en-1-amine], the inhibition at 4 µM stood at 30% and the inhibition at 40 µM stood at 98%.

For `Brc1ccc(/C=C/CN(CCc2c[nH]c3ccccc23)Cc2ccccc2)cc1` [Compound 7ag, (E)-N-(2-(1H-indol-3-yl)ethyl)-N-benzyl-3-(4-bromophenyl)prop-2-en-1-amine], the inhibition at 4 µM turned out to be 57%, the inhibition at 40 µM came to 96% and the half-maximal inhibitory concentration (IC50) was determined as 6.91 µM.

Consider `FC(F)(F)c1ccc(/C=C/CN(CCc2c[nH]c3ccccc23)Cc2ccccc2)cc1` [Compound 7ah, (E)-N-(2-(1H-indol-3-yl)ethyl)-N-benzyl-3-(4-(trifluoromethyl)phenyl)prop-2-en-1-amine], for which the inhibition at 4 µM was determined as 24% and the inhibition at 40 µM was 96%.

In the case of `CCOC(=O)c1ccc(/C=C/CN(CCc2c[nH]c3ccccc23)Cc2ccccc2)cc1` [Compound 7ai, (E)-ethyl 4-(3-((2-(1H-indol-3-yl)ethyl)(benzyl)amino)prop-1-enyl)benzoate], the inhibition at 4 µM was 36% and the inhibition at 40 µM amounted to 99%.

Regarding `COc1ccc(CN(C/C=C/c2ccccc2)CCc2c[nH]c3ccccc23)cc1` [Compound 7ba, (E)-N-(2-(1H-indol-3-yl)ethyl)-N-(4-methoxybenzyl)-3-phenylprop-2-en-1-amine], the inhibition at 4 µM came out at 34% and the inhibition at 40 µM came to 98%.

As to `Fc1ccc(CN(C/C=C/c2ccccc2)CCc2c[nH]c3ccccc23)cc1` [Compound 7bb, (E)-N-(2-(1H-indol-3-yl)ethyl)-N-(4-fluorobenzyl)-3-phenylprop-2-en-1-amine], the inhibition at 4 µM was 31% and the inhibition at 40 µM came out at 96%.

As for `O=[N+]([O-])c1ccc(CN(C/C=C/c2ccccc2)CCc2c[nH]c3ccccc23)cc1` [Compound 7bc, (E)-N-(2-(1H-indol-3-yl)ethyl)-N-(4-nitrobenzyl)-3-phenylprop-2-en-1-amine], the inhibition at 4 µM was 29% and the inhibition at 40 µM was 88%.

On to `C(=C\c1ccccc1)/CN(CCc1c[nH]c2ccccc12)Cc1cccc2ccccc12` [Compound 7c, (E)-N-(2-(1H-indol-3-yl)ethyl)-N-(naphthalen-1-ylmethyl)-3-phenylprop-2-en-1-amine], for which the inhibition at 4 µM stood at 39%, the inhibition at 40 µM amounted to 86% and the IC50 was determined as 8.95 µM.

Consider `Cn1cc(CCN(C/C=C/c2ccccc2)Cc2ccccc2)c2ccccc21` [Compound 7d, (E)-N-benzyl-N-(2-(1-methyl-1H-indol-3-yl)ethyl)-3-phenylprop-2-en-1-amine], for which the inhibition at 4 µM was -8% and the inhibition at 40 µM was 101%.

On to `C(=C\c1ccccc1)/CN(Cc1ccccc1)Cc1ccccc1` [Compound 7e, (E)-N,N-dibenzyl-3-phenylprop-2-en-1-amine], for which the inhibition at 4 µM is -9% and the inhibition at 40 µM was found to be 75%.

Consider `Cc1ccc(/C=C/CN(C)Cc2cccc3ccccc23)cc1` [Compound 7fa, (E)-N-methyl-N-(naphthalen-1-ylmethyl)-3-p-tolylprop-2-en-1-amine], for which the inhibition at 4 µM was -26% and the inhibition at 40 µM was 95%.

For the compound `Cc1cccc(/C=C/CN(C)Cc2cccc3ccccc23)c1` [Compound 7fb, (E)-N-methyl-N-(naphthalen-1-ylmethyl)-3-m-tolylprop-2-en-1-amine], the inhibition at 4 µM was found to be 2% and the inhibition at 40 µM is 63%.

In the case of `Cc1ccccc1/C=C/CN(C)Cc1cccc2ccccc12` [Compound 7fc, (E)-N-methyl-N-(naphthalen-1-ylmethyl)-3-o-tolylprop-2-en-1-amine], the inhibition at 4 µM is -71% and the inhibition at 40 µM was found to be 77%.

On to `CN(C/C=C/c1ccc(I)cc1)Cc1cccc2ccccc12` [Compound 7fd, (E)-3-(4-iodophenyl)-N-methyl-N-(naphthalen-1-ylmethyl)prop-2-en-1-amine], for which the inhibition at 4 µM is 11% and the inhibition at 40 µM worked out at 94%.

On to `CN(C/C=C/c1ccc(F)cc1)Cc1cccc2ccccc12` [Compound 7fe, (E)-3-(4-fluorophenyl)-N-methyl-N-(naphthalen-1-ylmethyl)prop-2-en-1-amine], for which the inhibition at 4 µM worked out at 4% and the inhibition at 40 µM worked out at 85%.

Consider `CN(C/C=C/c1ccc(Cl)cc1)Cc1cccc2ccccc12` [Compound 7ff, (E)-3-(4-chlorophenyl)-N-methyl-N-(naphthalen-1-ylmethyl)prop-2-en-1-amine], for which the inhibition at 4 µM came to 37% and the inhibition at 40 µM stood at 91%.

For the compound `CN(C/C=C/c1ccc(Br)cc1)Cc1cccc2ccccc12` [Compound 7fg, (E)-3-(4-bromophenyl)-N-methyl-N-(naphthalen-1-ylmethyl)prop-2-en-1-amine], the inhibition at 4 µM is -61% and the inhibition at 40 µM was determined as 93%.

With `CN(C/C=C/c1ccc(C(F)(F)F)cc1)Cc1cccc2ccccc12` [Compound 7fh, (E)-N-methyl-N-(naphthalen-1-ylmethyl)-3-(4-(trifluoromethyl)phenyl)prop-2-en-1-amine], the inhibition at 4 µM stood at 30% and the inhibition at 40 µM was 87%.
